The target of the assay is T1, GPR6 receptor expressed in CHO-K1 cells (Homo sapiens, UniProt P46095).
T1 construct: expressed in transfected cells
T1 sequence (P46095 whole entry): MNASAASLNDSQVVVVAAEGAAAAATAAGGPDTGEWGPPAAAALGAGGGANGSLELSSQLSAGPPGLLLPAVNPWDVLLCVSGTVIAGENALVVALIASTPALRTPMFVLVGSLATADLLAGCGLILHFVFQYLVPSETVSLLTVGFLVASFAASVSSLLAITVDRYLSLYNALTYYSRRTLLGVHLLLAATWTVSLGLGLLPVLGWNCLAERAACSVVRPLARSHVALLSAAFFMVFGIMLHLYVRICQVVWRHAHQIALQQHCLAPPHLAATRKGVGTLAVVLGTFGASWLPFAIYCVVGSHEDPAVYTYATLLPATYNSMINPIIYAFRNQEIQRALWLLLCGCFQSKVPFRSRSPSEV
As to the kind of experiment: In vitro inhibition of cAMP (EC50), cell-based HTRF cAMP assay. The conditions noted are these: inhibition of constitutive cAMP activity of GPR6 in CHO-K1 cells. Put shortly: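 Cellular cAMP measured by Lance Ultra HTRF (Eu-cAMP tracer, ULight anti-cAMP), with EC50 fitted by four-parameter logistic. Test compounds sat on cells 45 min, 37 °C, in pH 7.4 Ringer's with 300 μM IBMX and 0.5% BSA; GPR6 in CHO-K1 induced beforehand by doxycycline, 2 μg/mL, 20 h.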
Regarding `N#Cc1ccc(N2CCC(Oc3ccc(F)cc3F)CC2)c(NC(=O)c2cccn(C3CCCCC3)c2=O)c1` [Example 180, N-(5-cyano-2-(4-(2,4-difluorophenoxy)piperidin-1-yl)phenyl)-1-cyclohexyl-2-oxo-1,2-dihydropyridine-3-carboxamide], the “pEC50, in vitro inhibition of cAMP” value is 5.8. For `CC(C)n1cccc(C(=O)Nc2cc(C#N)ccc2N2CCC(Oc3ccc(F)cc3F)CC2)c1=O` [Example 181, N-(5-cyano-2-(4-(2,4-difluorophenoxy)piperidin-1-yl)phenyl)-1-isopropyl-2-oxo-1,2-dihydropyridine-3-carboxamide] the value was 6.4; for `CC(C)n1cc(Br)cc(C(=O)Nc2cc(C#N)ccc2N2CCC(Oc3ccc(F)cc3F)CC2)c1=O` [Example 182, 5-bromo-N-(5-cyano-2-(4-(2,4-difluorophenoxy)piperidin-1-yl)phenyl)-1-isopropyl-2-oxo-1,2-dihydropyridine-3-carboxamide], 6.3. For `Cn1c(-c2ccccc2)ncc(C(=O)Nc2cc(C#N)ccc2N2CCC(Oc3ccc(F)cc3F)CC2)c1=O` [Example 183, N-(5-cyano-2-(4-(2,4-difluorophenoxy)piperidin-1-yl)phenyl)-1-methyl-6-oxo-2-phenyl-1,6-dihydropyrimidine-5-carboxamide] the value was 5.9. For `Cc1cc(C(=O)Nc2cc(C#N)ccc2N2CCC(Oc3ccc(F)cc3F)CC2)c(=O)n(C)c1C` [Example 184, N-(5-cyano-2-(4-(2,4-difluorophenoxy)piperidin-1-yl)phenyl)-1,5,6-trimethyl-2-oxo-1,2-dihydropyridine-3-carboxamide] the value was 6.8; for `Cn1c2c(cc(C(=O)Nc3cc(C#N)ccc3N3CCC(Oc4ccc(F)cc4F)CC3)c1=O)CCCC2` [Example 185], 6.4.

Turning to `CC(C)c1ccc(C(=O)Nc2cc(C#N)ccc2N2CCC(Oc3ccc(F)cc3F)CC2)c(=O)n1C` [Example 186], the “pEC50, in vitro inhibition of cAMP” value is listed as 6.4. The result for `Cc1cccc2ncc(C(=O)Nc3cc(C#N)ccc3N3CCC(Oc4ccc(F)cc4F)CC3)c(=O)n12` [Example 187, N-(5-cyano-2-(4-(2,4-difluorophenoxy)piperidin-1-yl)phenyl)-6-methyl-4-oxo-4H-pyrido[1,2-a]pyrimidine-3-carboxamide] reads 6.6. For `COc1cc(N(C)C)ccc1C(=O)Nc1cc(C#N)ccc1N1CCC(Oc2ccc(F)cc2F)CC1` [Example 188, N-(5-cyano-2-(4-(2,4-difluorophenoxy)piperidin-1-yl)phenyl)-4-(dimethylamino)-2-methoxybenzamide] the value was 6.4; for `COc1c(F)ccc(F)c1C(=O)Nc1cc(C#N)ccc1N1CCC(Oc2ccc(F)cc2F)CC1` [Example 189, N-(5-cyano-2-(4-(2,4-difluorophenoxy)piperidin-1-yl)phenyl)-3,6-difluoro-2-methoxybenzamide], 5.8.

For `COc1cc(Cl)c(Cl)cc1C(=O)Nc1cc(C#N)ccc1N1CCC(Oc2ccc(F)cc2F)CC1` [Example 190, 4,5-dichloro-N-(5-cyano-2-(4-(2,4-difluorophenoxy)piperidin-1-yl)phenyl)-2-methoxybenzamide], the “pEC50, in vitro inhibition of cAMP” value is on record as 6.5.

In the case of `COc1nc(Cl)ccc1C(=O)Nc1cc(C#N)ccc1N1CCC(Oc2ccc(F)cc2F)CC1` [Example 191, 6-chloro-N-(5-cyano-2-(4-(2,4-difluorophenoxy)piperidin-1-yl)phenyl)-2-methoxynicotinamide], the “pEC50, in vitro inhibition of cAMP” value was determined as 6.8. As to `COc1ccc(F)c(F)c1C(=O)Nc1cc(C#N)ccc1N1CCC(Oc2ccc(F)cc2F)CC1` [Example 192, N-(5-cyano-2-(4-(2,4-difluorophenoxy)piperidin-1-yl)phenyl)-2,3-difluoro-6-methoxybenzamide], the “pEC50, in vitro inhibition of cAMP” value is on record as 6.3.

The values are drawn from patent US11426397B2, “Piperidinyl- and piperazinyl-substituted heteroaromatic carboxamides as modulators of GPR6” (TAKEDA PHARMACEUTICAL COMPANY LIMITED, priority 2017, dated 2022).
